From patent publication US11369662B2 (The Medical College of Wisconsin, Inc., priority 2014, dated 2022)

Columns and labels:
U-937 cells = experiment: Agarose microdroplet assay of U-937 migration; format: cell-based; conditions: 18-24 h, serum-containing media
Procedure: Agarose microdroplet assay. The agarose microdroplet assay was performed to determine U-937 cellular migration, as previously described. 0.5×10^6 cells/ml U-937 target cells were harvested and washed in HBSS. Cells were spun at 2,000 rpm and were transferred to a graduated 15 ml glass conical tube. The cell concentration was adjusted in agarose medium, prepared from 2% low melting temperature Seaplaque agarose and medium containing 15% FBS, using a 1:4 volume-to-volume dilution. A 1 μl agarose droplet containing 1-10^5 target cells was placed in the center of each well of a 96-well flat-bottom tissue culture plate, in triplicate, using a gastight 0.05 ml Hamilton syringe (Hamilton Company, Reno, Nev.). Droplets were allowed to harden at 4° C. for 20 min. 200 μl chilled test media was applied to each well. […] The plate was incubated for 18-24 h at 37° C. and 5% CO2. Following incubation, the radius of each droplet was determined and target cell migration was measured at four directional points 900 from one another, using an inverted light microscope equipped with a gridded eyepiece, at 40× total magnification. Percent inhibition of each sample was quantified. The plate was incubated for an additional 24 h to measure recovery, and viability was determined by trypan blue exclusion.
Agarose microdroplet assay. The agarose microdroplet assay was performed to determine U-937 cellular migration, as previously described {AdeCXCL121an, 1980 #1609}. 0.5×10^6 cells/ml U-937 target cells were harvested and washed in HBSS. Cells were spun at 2,000 rpm and were transferred to a graduated 15 ml glass conical tube. […] Following incubation, the radius of each droplet was determined and target cell migration was measured at four directional points 900 from one another, using an inverted light microscope equipped with a gridded eyepiece, at 40× total magnification. Percent inhibition of each sample was quantified. The plate was incubated for an additional 24 h to measure recovery, and viability was determined by trypan blue exclusion.

CXCR4 = molecular target: T1, CXCR4 (Homo sapiens, UniProt P61073); experiment: CXCR4 internalization assay in HeLa cells; format: cell-based; conditions: 80 ng/ml, 20 min, FACS surface expression
T1 construct: purchased Millipore
T1 sequence (P61073 whole entry): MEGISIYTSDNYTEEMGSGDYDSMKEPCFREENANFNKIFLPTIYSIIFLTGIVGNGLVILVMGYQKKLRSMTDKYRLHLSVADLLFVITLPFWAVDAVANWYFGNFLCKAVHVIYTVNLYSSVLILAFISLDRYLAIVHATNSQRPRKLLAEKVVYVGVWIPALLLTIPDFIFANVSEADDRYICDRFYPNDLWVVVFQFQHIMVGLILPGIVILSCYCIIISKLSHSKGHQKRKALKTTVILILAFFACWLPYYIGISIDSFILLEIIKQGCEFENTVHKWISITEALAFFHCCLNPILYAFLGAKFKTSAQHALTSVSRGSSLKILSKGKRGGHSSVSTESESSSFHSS
Procedure: CXCR4 internalization assay. HeLa cells grown on 6-cm dishes were washed twice with PBS and detached from the surface of the plate by incubating with 350 μl Cellstripper cell dissociation solution (Mediatech, Va.) for 10 min at 37° C. Cells were collected in 4 ml PBS containing 0.1% BSA (Media Tech, Va.) by centrifugation. Cell pellets were re-suspended in 1.5 ml PBS-0.1% BSA and 5×10^5 cells were transferred to a fresh 5 ml polystyrene round bottom tube (BD falcon) and washed once with PBS+0.1% BSA and re-suspended in 250 μl PBS-0.1% BSA. […] Following treatment, 4 mL cold PBS was added to each tube, cells were collected by centrifugation and then fixed by re-suspending the pellet in 500 μl 4% paraformaldehyde (made in PBS) and incubating for 15 min at 37° C. Cells were collected by centrifugation and washed once with 4 mL PBS and then twice with PBS-0.1% BSA. […] CXCR4 surface expression was analyzed by flow cytometry (FACS-CANTO; Becton Dickinson) and analysis was performed using FlowJo v.9.3 software.
CXCR4 internalization assay. […] CXCR4 surface expression was analyzed by flow cytometry (FACS-CANTO; Becton Dickinson) and analysis was performed using FlowJo v.9.3 software.

Substance | maximal inhibition of U-937 cell migration (U-937 cells) [%] | CXCR4 internalization (CXCR4)
CXCL12WT: wild type CXCL12 (stromal cell-derived factor-1/SDF-1), SEQ ID NO:1 | 40.1±18 | –
CXCL122: constitutively dimeric variant of CXCL12 containing L36C/A65C mutations | – | nominal internalization
